Test results taken from PubChem BioAssay (NCI).
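Interpolation was linear, between the two tested concentrations surrounding the appropriate level; five concentrations were tested over 48 hours in 96-well plates. Abbreviation: GI50, concentration required for 50% inhibition of growth. TGI denotes the concentration required for complete inhibition of growth.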

Legend:
Experiment in all cases: NCI anticancer screen, dose series, 48 h
[1] = tested on: SK-MEL-28 melanoma
[2] = tested on: A549 NSCLC
[3] = tested on: SK-MEL-5 melanoma
[4] = tested on: BT-549 breast
[5] = tested on: ACHN renal
[6] = tested on: EKVX NSCLC
[7] = tested on: RXF 393 renal
[8] = tested on: HOP-92 NSCLC
[9] = tested on: MOLT-4 leukemia
[10] = tested on: 786-0 renal
[11] = tested on: MALME-3M melanoma
[12] = tested on: MCF7 breast
[13] = tested on: LOX IMVI melanoma
[14] = tested on: SNB-75 CNS
[15] = tested on: IGROV1 ovarian
[16] = tested on: RPMI-8226 leukemia
[17] = tested on: SNB-19 CNS
[18] = tested on: CCRF-CEM leukemia
[19] = tested on: HCC-2998 colon
[20] = tested on: OVCAR-8 ovarian
[21] = tested on: SN12C renal
[22] = tested on: UACC-257 melanoma
[23] = tested on: HCT-15 colon
[24] = tested on: T-47D breast
[25] = tested on: OVCAR-3 ovarian
[26] = tested on: SF-268 CNS
[27] = tested on: NCI-H460 lung
[28] = tested on: HOP-62 NSCLC
[29] = tested on: NCI/ADR-RES ovarian
[30] = tested on: TK-10 renal
[31] = tested on: NCI-H226 lung
[32] = tested on: OVCAR-5 ovarian
[33] = tested on: SR leukemia
[34] = tested on: HS 578T breast
[35] = tested on: NCI-H522 lung
[36] = tested on: NCI-H23 lung
[37] = tested on: OVCAR-4 ovarian
[38] = tested on: SK-MEL-2 melanoma
[39] = tested on: U251 CNS
[40] = tested on: COLO 205 colon
[41] = tested on: K-562 leukemia
[42] = tested on: SF-295 CNS
[43] = tested on: CAKI-1 renal
[44] = tested on: HCT-116 colon
[45] = tested on: SF-539 CNS
[46] = tested on: MDA-MB-231 breast
[47] = tested on: UACC-62 melanoma
[48] = tested on: DU-145 prostate
[49] = tested on: HL-60(TB) leukemia
[50] = tested on: MDA-MB-435
[51] = tested on: M14 melanoma
[52] = tested on: A498 renal
[53] = tested on: KM12 colon
[54] = tested on: PC-3 prostate
[55] = tested on: HT29 colon
[56] = tested on: UO-31 renal
[57] = tested on: SK-OV-3 ovarian

Structure (SMILES): CC(C)(C)c1nn(-c2ccccc2)c2c1C(=O)CSC(c1ccccc1Cl)N2 (centres undefined)
- GI50 [1]: 5.18 µM
- TGI [1]: 22.5 µM
- GI50 [2]: 1.67 µM
- TGI [2]: 14 µM
- GI50 [3]: 0.966 µM
- TGI [3]: 11 µM
- GI50 [4]: 2.91 µM
- TGI [4]: 12.9 µM
- GI50 [5]: 4.87 µM
- TGI [5]: 19.3 µM
- GI50 [6]: 3.71 µM
- TGI [6]: 26.1 µM
- GI50 [7]: 0.545 µM
- TGI [7]: 3.11 µM
- GI50 [8]: 0.82 µM
- TGI [8]: 14.4 µM
- GI50 [9]: 3.42 µM
- TGI [9]: 16.5 µM
- GI50 [10]: 3.32 µM
- TGI [10]: 15.1 µM
- GI50 [11]: 14.7 µM
- TGI [11]: 32.6 µM
- GI50 [12]: 1.03 µM
- TGI [12]: 13.5 µM
- GI50 [13]: 2.74 µM
- TGI [13]: 15.7 µM
- GI50 [14]: 2.2 µM
- TGI [14]: 13.9 µM
- GI50 [15]: 3.52 µM
- TGI [15]: 43 µM
- GI50 [16]: 3.02 µM
- TGI [16]: 19.3 µM
- GI50 [17]: 2.54 µM
- TGI [17]: 15.2 µM
- GI50 [18]: 2.48 µM
- TGI [18]: 13.5 µM
- GI50 [19]: 2.08 µM
- TGI [19]: 7.51 µM
- GI50 [20]: 6.65 µM
- TGI [20]: 30.2 µM
- GI50 [21]: 3.26 µM
- TGI [21]: 14.7 µM
- GI50 [22]: 2.78 µM
- TGI [22]: 14.7 µM
- GI50 [23]: 2 µM
- TGI [23]: 16 µM
- GI50 [24]: 6.1 µM
- TGI [24]: 30 µM
- GI50 [25]: 1.37 µM
- TGI [25]: 6.37 µM
- GI50 [26]: 2.76 µM
- TGI [26]: 18.5 µM
- GI50 [27]: 2.8 µM
- TGI [27]: 12.4 µM
- GI50 [28]: 4.47 µM
- TGI [28]: 21.8 µM
- GI50 [29]: 0.632 µM
- TGI [29]: 7.54 µM
- GI50 [30]: 11.1 µM
- TGI [30]: 29.4 µM
- GI50 [31]: 1.61 µM
- TGI [31]: 5.97 µM
- GI50 [32]: 3.18 µM
- TGI [32]: 13.1 µM
- GI50 [33]: 0.413 µM
- TGI [33]: 9.89 µM
- GI50 [34]: 1.26 µM
- TGI [34]: 7.22 µM
- GI50 [35]: 0.65 µM
- TGI [35]: 7.34 µM
- GI50 [36]: 2.39 µM
- TGI [36]: 17.9 µM
- GI50 [37]: 8.48 µM
- TGI [37]: 21.9 µM
- GI50 [38]: 2.1 µM
- TGI [38]: 13.4 µM
- GI50 [39]: 2.41 µM
- TGI [39]: 15.5 µM
- GI50 [40]: 2.51 µM
- TGI [40]: 6.01 µM
- GI50 [41]: 0.583 µM
- TGI [41]: 14.9 µM
- GI50 [42]: 0.746 µM
- TGI [42]: 10.5 µM
- GI50 [43]: 1.24 µM
- TGI [43]: 22.2 µM
- GI50 [44]: 1.9 µM
- TGI [44]: 12 µM
- GI50 [45]: 2.36 µM
- TGI [45]: 10.1 µM
- GI50 [46]: 3.57 µM
- TGI [46]: 16 µM
- GI50 [47]: 0.775 µM
- TGI [47]: 15 µM
- GI50 [48]: 2.86 µM
- TGI [48]: 10.7 µM
- GI50 [49]: 2.28 µM
- TGI [49]: 10.2 µM
- GI50 [50]: 0.304 µM
- TGI [50]: 1.31 µM
- GI50 [51]: 1.18 µM
- TGI [51]: 6.45 µM
- GI50 [52]: 0.353 µM
- TGI [52]: 3.78 µM
- GI50 [53]: 1.48 µM
- TGI [53]: 14.7 µM
- GI50 [54]: 1.62 µM
- TGI [54]: 16.5 µM
- GI50 [55]: 1.97 µM
- TGI [55]: 6.55 µM
- GI50 [56]: 3.03 µM
- TGI [56]: 19.1 µM
- GI50 [57]: 1.78 µM
- TGI [57]: 6.17 µM
